How the values were obtained:
Assay type in all cases: cell-based, human
ERα [1] = assay: ERα down-regulation and polyubiquitination in MCF-7 cells
Method: FIG. 4-5 is a diagram illustrating that the ERAP1-peptide promotes nuclear translocation of PHB2. […] Then, the protein level and the mRNA level for the expression of ERα were obtained by Western blotting (the upper panel: Protein) and semi-quantitative RT-PCR (the lower panel: mRNA), respectively. β-actin is a loading control for each. […] MCF-7 cells were treated with the ERAP1-peptide and/or E2 in the presence of 1 μM MG-132 for 1 hour. Then, the cell lysate was immunoprecipitated with anti-ERα antibody.
Down-regulation of ERα was evaluated by semi-quantitative reverse transcription PCR. Complete RNA was extracted using RNeasy Mini purification kit (Qiagen) from E2-treated cells in the presence or in the absence of the ERAP1 peptide, and reverse-transcribed into cDNA using Superscript II reverse transcriptase (Invitrogen), oligo dT primer (nvitrogen) and 25 mM dNTP Mixture (Invitrogen). mRNAs of ERα and β-actin were measured with GeneAmp PCR system (Applied Biosystems, Foster, Calif., USA). The primers are as described below: […]

ERα [2] = assay: ERα down-regulation and polyubiquitination in KPL-3C cells; conditions: in the presence of MG132
Method: FIG. 5 is a diagram illustrating the results of immunoblotting analysis by which the effects of the ERAP1-peptide in the down-regulation by polyubiquitination of ERα and proteasome decomposition were evaluated. The upper panel and the lower panel show the results obtained by the procedures described below. Namely, KPL-3C cells were treated with the ERAP1-peptide and/or 10 nM E2 for 1 hour. Then, the protein level and the mRNA level of ERα were examined by Western blotting and semi-quantitative RT-PCR. The results thereof are shown in the upper panel. β-actin is a loading control. Then KPL-3C cells were treated with the ERAP1-peptide and/or E2 in the presence of 1 μM MG-132 for 1 hour. Then, the cell lysate was immunoprecipitated with anti-ERα antibody. The results thereof are shown in the lower panel.

[3] = test system: ERα interaction with IGF-1Rβ, Shc, PI3K; Akt and MAPK phosphorylation; assay: Non-genomic activation route, immunoprecipitation/immunoblotting, MCF-7
Method: MCF-7 cells were treated with the ERAP1-peptide. Then, immediately, the cells were stimulated with 10 nM E2 for 24 hours. Then, the cytoplasm fraction was immunoprecipitated with anti-ERα antibody. […] MCF-7 cells were treated with the ERAP1-peptide. Then, immediately, the cells were stimulated with 10 nM E2 for 24 hours. Then the cytoplasm fraction was immunoprecipitated with anti-ERα antibody or anti-PHB2 antibody.
FIG. 10-2 is a diagram illustrating that the ERAP1-peptide regulates E2-induced non-genomic activation route via IGF-1Rβ and Shc. […] BT-474 cells were treated with the ERAP1-peptide and/or E2 for 24 hours. Then, the cytoplasm fraction was immunoprecipitated with anti-ERα antibody.
As described in the item of “Western blotting analysis”, the cells were lysed with a 0.1% NP-40 lysis buffer. The cell lysate was precleaned using normal IgG and rec-Protein G Sepharose 4B (Zymed, San Francisco, Calif., USA) at 4° C. for 3 hours. After centrifuge separation, the supernatant was incubated in the presence of an anti-ERAP1 antibody, an anti-PHB2 antibody and an anti-ERα antibody at 4° C. for 6 hours. Then, the supernatant was incubated in the presence of rec-Protein G Sepharose 4B at 4° C. for 1 hour, to precipitate an antigen-antibody complex. The immunoprecipitated protein complex was washed with a lysis buffer three times, and separated by SDS-PAGE. Then, Western blotting analysis was performed by the method described previously (Kim J W, et al. Cancer Sci. 2009; 100: 1468-78.).

PHB2/REA phosphorylation = assay: Phosphorylation of PHB2 bound to ERα, nuclear fraction; conditions: MCF-7, 5 μM peptide, 1 μM E2 24 hours
Method: FIG. 22 is a diagram illustrating that phosphorylation of PHB2 serine regulates the transcriptional activity of ERα. […] MCF-7 cells and HCC1395 cells were treated with 5 μM ERAP1-peptide. Then, immediately, the cells were stimulated with 1 μM E2 for 24 hours. Then, the nuclear fraction of each cell was immunoprecipitated with anti-ERα antibody. Furthermore, with respect to the obtained sample, immunoblotting analysis was performed using the antibodies shown in the figure and the phosphorylation antibody. […] COS-7 cells temporarily transfected with PHB2 (or PHB2 mutation vectors, S39A and S39G), ERα, ERE-luciferase vector, and each plasmid of pRL-TK as an internal standard were stimulated with 1 μM E2 for 48 hours.
MCF-7 cells and HCC1395 cells were treated with 5 μM ERAP1-peptide. Then, immediately the cells were stimulated with 1 μM E2 for 24 hours. Then, the nuclear fraction was isolated from the cells of each treatment. The nuclear fraction was precleaned at 4° C. for 3 hours using Normal IgG and rec-Protein G Sepharose 4B (Zymed, San Francisco, Calif., USA), and centrifuged, and then the supernatant was incubated in the presence of an anti-ERα antibody at 4° C. for 6 hours. Then, the supernatant was added with rec-Protein G Sepharose 4B and incubated at 4° C. for 1 hour to precipitate a antigen-antibody complex. […]

`CSCC[C@H](NC(=O)[C@H](CCC(N)=O)NC(=O)[C@H](CCCNC(=N)N)NC(=O)[C@H](CCCNC(=N)N)NC(=O)[C@H](CCCNC(=N)N)NC(=O)[C@H](CCCNC(=N)N)NC(=O)[C@H](CCCNC(=N)N)NC(=O)[C@H](CCCNC(=N)N)NC(=O)[C@H](CCCNC(=N)N)NC(=O)[C@H](CCCNC(=N)N)NC(=O)[C@H](CCCNC(=N)N)NC(=O)[C@H](CCCNC(=N)N)NC(=O)[C@@H](N)CCCNC(=N)N)C(=O)N[C@@H](CC(C)C)C(=O)N[C@@H](CO)C(=O)N[C@@H](CC(=O)O)C(=O)N[C@@H](CC(C)C)C(=O)N[C@H](C(=O)N[C@@H](CC(C)C)C(=O)N[C@@H](CCC(N)=O)C(=O)N[C@@H](CC(C)C)C(=O)N[C@@H](CCCNC(=N)N)C(=O)N[C@@H](CCC(N)=O)C(=O)N[C@@H](CCCNC(=N)N)C(=O)O)[C@@H](C)O` [ERAP1-peptide] was tested, and the “decrease in the protein level of ERα after estrogen” value (ERα [1]; MCF-7) was “the decrease thereof was suppressed”, the “polyubiquitination of ERα” value (ERα [1]; MCF-7, E2, in the presence of MG132) was “polyubiquitination of ERα was inhibited” and the “protein decrease and polyubiquitination of ERα” value (ERα [2]) was “suppression for protein decrease of ERα was similarly recognized with inhibition of polyubiquitination”. For the same molecule, the “binding of ERα and PI3K” value ([3]; cytoplasm fraction, 24 hours) was “inhibit the binding of ERα and PI3K”, the “binding of ERα and Shc and of ERα and IGF-1Rβ” value ([3]; cytoplasm fraction, 24 hours) was “inhibited the binding of ERα and Shc and the binding of ERα and IGF-1Rβ” and the “phosphorylation of Ser473 of Akt and phosphorylation of MAPK” value ([3]; time course to 24 hours) was “inhibited respectively within 3 hours after addition of the ERAP1-peptide, and the suppression was maintained even after 24 hours”. For the same molecule, the “phosphorylation of PHB2/REA bound to ERα in the nucleus” value (PHB2/REA phosphorylation) was “phosphorylations of the tyrosine and serine residues in the binding-recognized PHB2/REA were recognized”.
